Source: paper PMC11433825, “Bidentate Substrate Binding Mode in Oxalate Decarboxylase” (Molecules, 2024)
Structures can show the parent of a compound that is named as a salt.

Tests used:
[1] = target: T1, Oxalate decarboxylase (OxDC) (Bacillus subtilis, UniProt O34714, W96F); assay: X-band […] Mims ENDOR; type: binding; conditions: labelled compound (13C), 50 mM; citrate pH 5.0, 50% glycerol, 10 mM ascorbate, 5 uM DTPA; 5 K; bidentate to N-terminal active-site Mn(II)
T1 construct: recombinant, C-terminal His6 tag kept, IPTG/heat-shock expression with MnCl2, Ni-NTA purified; Mn(II) in two cupin sites per subunit
T1 sequence (O34714 whole entry W96F): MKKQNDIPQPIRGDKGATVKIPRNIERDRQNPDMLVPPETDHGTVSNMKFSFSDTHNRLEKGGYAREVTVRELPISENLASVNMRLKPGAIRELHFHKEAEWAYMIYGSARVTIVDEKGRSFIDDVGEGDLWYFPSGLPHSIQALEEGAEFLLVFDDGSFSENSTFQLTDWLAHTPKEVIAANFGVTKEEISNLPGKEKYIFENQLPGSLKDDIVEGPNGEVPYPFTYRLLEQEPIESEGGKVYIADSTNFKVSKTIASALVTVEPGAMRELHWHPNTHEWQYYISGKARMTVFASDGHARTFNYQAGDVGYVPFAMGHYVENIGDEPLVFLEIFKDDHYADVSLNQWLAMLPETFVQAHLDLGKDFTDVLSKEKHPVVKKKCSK

[2] = target: T2, Oxalate decarboxylase (OxDC) (Bacillus subtilis, UniProt O34714); assay: X-band […] Mims ENDOR; type: binding; conditions: labelled compound (13C), 50 mM; Tris pH 8.5, 50% glycerol, 10 mM ascorbate, 5 uM DTPA; 5 K; bidentate to N-terminal active-site Mn(II)
T2 construct: recombinant, C-terminal His6 tag kept, IPTG/heat-shock expression with MnCl2, Ni-NTA purified; Mn(II) in two cupin sites per subunit
T2 sequence (O34714 whole entry): as the sequence (O34714 whole entry W96F) above, with F96W counted along it

O=C(O)C(=O)O [^13C-labeled oxalate]
X-band 13C Mims ENDOR [1]: Mn(II) ion in the active site of the OxDC mutant W96F at low pH
X-band 13C Mims ENDOR [2]: bidentate binding of oxalate in WT OxDC at high pH where the enzyme is inactive
